According to patent publication EP0320984A2, “1,4-Dihydropyridine derivatives” (FUJIREBIO INC., priority 1987, dated 1989):

What was measured:
Thoracic aortas = assay: Inhibitory activity on KCl-induced contraction of aorta (helical strips of thoracic aorta); design: species or system male rabbits; settings: 10^-6M, 60min after addition; 30 mM KCl, rabbit aorta strips, 37°C
Protocol: 2. Experiment for inhibitory activity on KCl-induced contraction of aorta: Thoracic aortas were isolated from male rabbits and cut into helical strips. The preparations were mounted vertically in organ baths containing 30 ml of Krebs- Henseleit solution. […] Test and reference compounds were added to the bath 30 minutes after KCl treatment.

[1] = system: Rabbit platelet rich plasma (PRP); assay: Inhibitory activity on platelet aggregation in rabbit platelet rich plasma (light transmission); assay type: cell-based; settings: added to PRP 30 minutes before agent; for Inhibitory activity on platelet aggregation, ADP / Inhibitory activity on platelet aggregation, Collagen / Inhibitory activity on platelet aggregation, AA: compound 10^-4 (unit not given); for Inhibitory activity on platelet aggregation, ADP: Adenosine diphosphate (ADP) 5 mM; for Inhibitory activity on platelet aggregation, Collagen: aggregating agent collagen; for Inhibitory activity on platelet aggregation, PAF: compound 3x10^-6 (unit not given), Platelet activating factor (PAF) 10 mg/ml; for Inhibitory activity on platelet aggregation, AA: Arachidonic acid (AA) 1 mM
Protocol: 3. Experiment for inhibitory activity on platelet aggregation in rabbit:
Rabbit platelet rich plasma (PRP) was prepared by centrifugation of the citrated blood at 380 g for 10 minutes at 20°C. Test solution (10 µl) was added to PRP (200 µl) 30 minutes before treatment of aggregation agents (10 µl). The extent of aggregation was expressed with the maximum change in light transmission for PRP and platelet poor plasma was taken as a value of 100%

Row | Compound | Inhibitory effect on KCl-induced contraction (Thoracic aortas) [%] | Inhibitory activity on platelet aggregation, ADP [1] [%] | Inhibitory activity on platelet aggregation, Collagen [1] [%] | Inhibitory activity on platelet aggregation, PAF [1] [%] | Inhibitory activity on platelet aggregation, AA [1] [%]
1 | COC(=O)C1=C(C)NC(C)=C(C(=O)OCCN(C)Cc2ccccc2)C1c1cccc([N+](=O)[O-])c1.Cl (stereo not shown) [NICARDIPINE, 1,4-dihydro-2,6-dimethyl-4-(3-nitrophenyl)pyridine-3,5-dicarboxylic acid-3-[2-(N-benzyl-N-methylamino)ethyl]ester-5-methyl ester hydrochloride, reference compound] | 91.1 | 6.9 | 3.6 |  | 
2 | COC(=O)C1=C(C)NC(C)=C(C(=O)OC/C=C/C=C/c2ccc(Cn3ccnc3)cc2)C1c1cccc([N+](=O)[O-])c1 (stereo not shown) [Example 19, 5-{4-(1-imidazolylmethyl)phenyl}-(E)-2,(E)-4-pentadien-1-yl methyl 1,4-dihydro-2,6-dimethyl-4-(3-nitrophenyl)pyridine-3,5-dicarboxylate] | 68.8 | 17.2 | 66.3 | 41.5 | 35.5
3 | COC(=O)C1=C(C)NC(C)=C(C(=O)OC/C=C/c2ccc(C(C)n3ccnc3)cc2)C1c1cccc([N+](=O)[O-])c1 (stereo not shown) [Example 24, (E)-3-{4-{1-(1-imidazolyl)ethyl}phenyl}-2-propen-1-yl methyl 1,4-dihydro-2,6-dimethyl-4-(3-nitrophenyl)pyridine-3,5-dicarboxylate] | 74.3 | 7.8 | 27.5 | 18.3 | 28.2
4 | C/C=C/C=C/COC(=O)C1=C(C)NC(C)=C(C(=O)OC/C=C/c2ccc(Cn3ccnc3)cc2)C1c1cccc([N+](=O)[O-])c1 (stereo not shown) [Example 15, (E)-2,(E)-4-hexadien-1-yl (E)-3-{4-(1-imidazolylmethyl)phenyl}2-propen-1-yl 1,4-dihydro-2,6-dimethyl-4-(3-nitrophenyl)pyridine-3,5-dicarboxylate] | 21.6 | 8.8 | 10.5 | 74.1 | 30.2
5 | COC(=O)C1=C(C)NC(C)=C(C(=O)OC/C=C/c2ccc(Cc3cccnc3)cc2)C1c1cccc([N+](=O)[O-])c1 (stereo not shown) [Example 2, Methyl (E)-3-{4-(3-pyridylmethyl)phenyl}-2-propen-1-yl 1,4-dihydro-2,6-dimethyl-4-(3-nitrophenyl)pyridine-3,5-dicarboxylate] |  | 5.5 | 23.5 | 0 | 12.6
6 | COC(=O)C1=C(C)NC(C)=C(C(=O)OC/C=C/c2ccc(Cn3ccnc3)cc2)C1c1ccccc1C#N (stereo not shown) [Example 18, (E)-3-{4-(1-imidazolylmethyl)phenyl}-2-propen-1-yl methyl 1,4-dihydro-2,6-dimethyl-4-(2-cyanophenyl)pyridine-3,5-dicarboxylate] |  | 8.8 | 61.8 | 48.6 | 30.4
7 | COCCOC(=O)C1=C(C)NC(C)=C(C(=O)OC/C=C/c2ccc(Cn3ccnc3)cc2)C1c1cccc([N+](=O)[O-])c1 (stereo not shown) [Example 16, (E)-3-{4-(1-imidazolylmethyl)phenyl}-2-propen-1-yl 2-methoxyethyl 1,4-dihydro-2,6-dimethyl-4-(3-nitrophenyl)pyridine-3,5-dicarboxylate] |  | 7.1 | 24.7 | 42.4 | 33.7
8 | COC(=O)C1=C(C)NC(C)=C(C(=O)OC/C(F)=C/c2ccc(Cn3ccnc3)cc2)C1c1cccc([N+](=O)[O-])c1 (stereo not shown) [Example 13, (Z)-3-{4-(1-imidazolylmethyl)phenyl}-2-fluoro-2-propen-1-yl methyl 1,4-dihydro-2,6-dimethyl-4-(3-nitrophenyl)pyridine-3,5-dicarboxylate] |  | 10.9 | 6.3 | 49.6 | 17.4
9 | COC(=O)C1=C(C)NC(C)=C(C(=O)OC)C1c1ccccc1[N+](=O)[O-] [NIFEDIPINE, 1,4-dihydro-2,6-dimethyl-4-(2-nitrophenyl)pyridine-3,5-dicarboxylic acid dimethyl ester, reference compound] | 87.6 | 0 | 5.1 |  | 0.2
10 | COC(=O)C1=C(C)NC(C)=C(C(=O)OC/C(C)=C/c2ccc(Cn3ccnc3)cc2)C1c1cccc([N+](=O)[O-])c1 (stereo not shown) [Example 8, (E)-3-{4-(1-imidazolylmethyl)phenyl}-2-methyl-2-propen-1-yl methyl 1,4-dihydro-2,6-dimethyl-4-(3-nitro-phenyl)pyridine-3,5-dicarboxylate] |  | 10.8 | 18.9 | 28.9 | 18.8
11 | COC(=O)C1=C(C)NC(C)=C(C(=O)OC/C=C/c2cccc(Cn3ccnc3)n2)C1c1cccc([N+](=O)[O-])c1 (stereo not shown) [Example 25, (E)-3-{6-(1-imidazolylmethyl)pyridine-2-yl}-2-propen-1-yl methyl 1,4-dihydro-2,6-dimethyl-4-(3-nitrophenyl)pyridine-3,5-dicarboxylate] |  | 0 | 22.5 | 28.5 | 27.8
